Earlier results as cited in patent US8168657B2, “Solenopsin A, B and analogs and as novel angiogenesis inhibitors” (priority 2002, dated 2012).

Experiments:
[1] = as much as 6000 units used over a shorter time period
[2] = test system: blood and tissue- and fluid-feeding parasites

## CCCCCCCCCCC[C@H]1CCC[C@H](C)N1 (relative stereo) [Solenopsin A, trans-2-methyl 6-n-undecylpiperidine]
[1]
  ill effects: did not cause any ill effects
[2]; synthetic version versus whole body extract, effective treatment
  units equivalent to 250 units of the whole body extracts: 1500 units
[2]; synthetically produced Solenopsin A
  elimination of blood and tissue- and fluid-feeding parasites: complete elimination
